Like-named read-outs stand apart in the source and are kept apart here.
What was measured:
PTPN2/TC-PTP = target: T1, PTPN2/TC-PTP (Homo sapiens, UniProt P17706); assay: Phosphatase panel, DiFMUP fluorescence assay; type: biochemical
T1 construct: purchased Recation Biology Inc
T1 sequence (P17706 1-415): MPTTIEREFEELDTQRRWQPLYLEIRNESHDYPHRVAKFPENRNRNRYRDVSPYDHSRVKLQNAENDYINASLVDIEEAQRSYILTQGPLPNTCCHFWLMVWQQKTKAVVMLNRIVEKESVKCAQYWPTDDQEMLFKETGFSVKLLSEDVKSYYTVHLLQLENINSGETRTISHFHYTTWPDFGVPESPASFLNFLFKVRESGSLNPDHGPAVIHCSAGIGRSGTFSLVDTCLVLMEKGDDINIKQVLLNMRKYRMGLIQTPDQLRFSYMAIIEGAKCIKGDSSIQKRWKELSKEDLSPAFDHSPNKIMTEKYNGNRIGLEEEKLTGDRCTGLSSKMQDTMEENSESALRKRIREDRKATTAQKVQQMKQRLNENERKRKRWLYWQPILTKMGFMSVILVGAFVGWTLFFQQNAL

PP1B = target: T2, PP1B (Homo sapiens, UniProt P62140); assay: Phosphatase panel, DiFMUP fluorescence assay; type: biochemical
T2 construct: purchased Recation Biology Inc

PP1A = target: T3, PP1A (Homo sapiens, UniProt P62136); assay: Phosphatase panel, DiFMUP fluorescence assay; type: biochemical
T3 construct: purchased Recation Biology Inc

DUSP22/MKPX = target: T4, DUSP22/MKPX (Homo sapiens, UniProt Q9NRW4); assay: Phosphatase panel, DiFMUP fluorescence assay; type: biochemical
T4 construct: purchased Recation Biology Inc
T4 sequence (Q9NRW4 1-184): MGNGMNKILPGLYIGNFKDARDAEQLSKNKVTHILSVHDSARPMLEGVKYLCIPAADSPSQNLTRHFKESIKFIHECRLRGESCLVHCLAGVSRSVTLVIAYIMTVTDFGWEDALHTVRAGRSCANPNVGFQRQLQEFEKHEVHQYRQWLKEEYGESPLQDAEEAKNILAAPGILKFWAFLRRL

PTPN12/PTP-PEST = target: T5, PTPN12/PTP-PEST (Homo sapiens, UniProt Q05209); assay: Phosphatase panel, DiFMUP fluorescence assay; type: biochemical
T5 construct: purchased Recation Biology Inc
T5 sequence (Q05209 1-780): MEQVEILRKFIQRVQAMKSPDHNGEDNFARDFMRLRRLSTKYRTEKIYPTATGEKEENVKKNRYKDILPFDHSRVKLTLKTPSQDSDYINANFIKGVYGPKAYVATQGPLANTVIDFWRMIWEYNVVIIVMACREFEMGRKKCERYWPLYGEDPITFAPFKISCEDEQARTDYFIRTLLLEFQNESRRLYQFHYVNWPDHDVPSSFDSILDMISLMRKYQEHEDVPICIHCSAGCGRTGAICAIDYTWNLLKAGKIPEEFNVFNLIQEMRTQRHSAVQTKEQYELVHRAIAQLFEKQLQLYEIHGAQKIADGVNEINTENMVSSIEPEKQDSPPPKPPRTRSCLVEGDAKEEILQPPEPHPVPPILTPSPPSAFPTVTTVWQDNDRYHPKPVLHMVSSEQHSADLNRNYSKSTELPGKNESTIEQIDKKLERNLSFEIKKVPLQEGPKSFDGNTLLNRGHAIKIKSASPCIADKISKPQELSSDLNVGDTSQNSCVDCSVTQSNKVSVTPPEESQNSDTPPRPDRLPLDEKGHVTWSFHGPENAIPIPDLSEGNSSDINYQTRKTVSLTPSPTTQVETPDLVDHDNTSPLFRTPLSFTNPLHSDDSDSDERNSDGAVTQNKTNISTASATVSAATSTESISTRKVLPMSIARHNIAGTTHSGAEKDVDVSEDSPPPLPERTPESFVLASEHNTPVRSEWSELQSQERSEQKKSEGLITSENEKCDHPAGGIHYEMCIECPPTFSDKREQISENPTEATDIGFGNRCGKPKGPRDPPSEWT

PTPN1/PTP1B-CD = target: T6, PTPN1/PTP1B-CD (Homo sapiens, UniProt P18031); assay: Phosphatase panel, DiFMUP fluorescence assay; type: biochemical
T6 construct: purchased Recation Biology Inc
T6 sequence (P18031 3-277 limits assumed): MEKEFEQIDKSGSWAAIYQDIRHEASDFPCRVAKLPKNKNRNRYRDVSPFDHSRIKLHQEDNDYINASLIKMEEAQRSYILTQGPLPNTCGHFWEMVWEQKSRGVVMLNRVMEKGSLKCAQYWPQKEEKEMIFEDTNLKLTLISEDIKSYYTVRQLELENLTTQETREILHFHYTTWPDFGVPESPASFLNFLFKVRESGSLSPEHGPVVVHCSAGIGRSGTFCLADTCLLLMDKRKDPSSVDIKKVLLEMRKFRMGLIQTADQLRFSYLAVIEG

PTPN11/SHP2-FL = target: T7, PTPN11/SHP2-FL (Homo sapiens, UniProt Q06124); assay: Phosphatase panel, DiFMUP assay with activating peptide
T7 sequence (Q06124 2-597 isoform Q06124-1): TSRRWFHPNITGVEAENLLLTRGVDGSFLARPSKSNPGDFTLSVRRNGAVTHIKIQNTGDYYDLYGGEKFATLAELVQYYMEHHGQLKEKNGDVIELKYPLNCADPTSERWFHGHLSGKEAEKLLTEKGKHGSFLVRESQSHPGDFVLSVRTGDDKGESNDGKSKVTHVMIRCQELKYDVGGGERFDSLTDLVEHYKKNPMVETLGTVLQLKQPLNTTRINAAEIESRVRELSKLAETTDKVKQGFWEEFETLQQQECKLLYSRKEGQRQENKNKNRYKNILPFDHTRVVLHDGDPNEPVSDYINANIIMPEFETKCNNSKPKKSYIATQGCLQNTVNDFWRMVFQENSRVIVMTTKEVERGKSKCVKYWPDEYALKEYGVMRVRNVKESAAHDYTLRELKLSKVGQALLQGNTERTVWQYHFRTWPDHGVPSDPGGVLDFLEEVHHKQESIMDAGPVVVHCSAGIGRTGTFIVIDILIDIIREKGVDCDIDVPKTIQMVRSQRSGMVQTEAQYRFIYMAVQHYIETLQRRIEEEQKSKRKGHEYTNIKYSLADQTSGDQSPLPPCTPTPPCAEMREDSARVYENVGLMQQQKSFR

[1] = Table 19B, read-out: inhibitory activity PTPN2/TC-PTP
[2] = Table 19A, read-out: inhibitory activity PP1B
[3] = Table 19A, read-out: inhibitory activity PP1A
[4] = Table 19A, read-out: inhibitory activity DUSP22/MKPXPT
[5] = Table 19B, read-out: inhibitory activity PTPN12/PTP-PEST
[6] = Table 19B, read-out: inhibitory activity PTPN1/PTP1B-CD
[7] = Table 5B, read-out: Compound IC50 (M) DUSP22/MKPX
[8] = Table 5C, read-out: Compound IC50 (M) PTPN12/PTP-PEST

T3 sequence (P62136 whole entry): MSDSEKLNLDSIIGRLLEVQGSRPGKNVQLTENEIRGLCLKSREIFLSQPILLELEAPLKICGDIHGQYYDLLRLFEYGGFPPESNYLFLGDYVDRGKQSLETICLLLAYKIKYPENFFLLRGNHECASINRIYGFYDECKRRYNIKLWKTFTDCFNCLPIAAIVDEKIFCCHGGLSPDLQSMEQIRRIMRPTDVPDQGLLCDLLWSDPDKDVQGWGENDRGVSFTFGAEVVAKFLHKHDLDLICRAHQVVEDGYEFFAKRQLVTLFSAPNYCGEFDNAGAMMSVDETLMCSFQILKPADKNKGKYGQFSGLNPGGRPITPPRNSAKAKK
T2 sequence (P62140 whole entry): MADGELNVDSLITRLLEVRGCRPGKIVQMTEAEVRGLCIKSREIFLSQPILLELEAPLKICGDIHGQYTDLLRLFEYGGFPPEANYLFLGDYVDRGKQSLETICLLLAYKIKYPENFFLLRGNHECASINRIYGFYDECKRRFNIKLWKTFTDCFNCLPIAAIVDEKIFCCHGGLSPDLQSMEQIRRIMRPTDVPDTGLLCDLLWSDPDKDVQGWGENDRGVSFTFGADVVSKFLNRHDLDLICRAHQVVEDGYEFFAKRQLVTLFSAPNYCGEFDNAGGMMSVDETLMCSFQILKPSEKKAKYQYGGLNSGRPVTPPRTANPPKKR

| SMILES | IC50 (PTPN2/TC-PTP; [1]) | IC50 (PP1B; [2]) | IC50 (PP1A; [3]) | IC50 (DUSP22/MKPX; [4]) | IC50 (PTPN12/PTP-PEST; [5]) | IC50 (PTPN1/PTP1B-CD; [6]) | IC50 (PTPN11/SHP2-FL) | IC50 (DUSP22/MKPX; [7]) | IC50 (PTPN12/PTP-PEST; [8]) | further results |
| --- | --- | --- | --- | --- | --- | --- | --- | --- | --- | --- |
| CC(CCC[C@@H](C)[C@H]1CCC2C3C(CC[C@@]21C)[C@@]1(C)CC[C@H](NCCCNCCCCN)C[C@@H]1C[C@H]3O)C(=O)O (single isomer, unassigned) [ENT-06] | > 0.0001 M | > 0.0001 M | > 0.0001 M | 2.09e-06 M | 8.62e-07 M | 1.47e-07 M | 3170 nM |  |  |  |
| CC(C)[C@@H](CC[C@@H](C)[C@H]1CC[C@H]2[C@@H]3[C@H](O)C[C@H]4C[C@@H](NCCCNCCCCNCCCN)CC[C@]4(C)[C@H]3CC[C@]12C)OS(=O)(=O)O (single isomer, unassigned) [ENT-02 (MSI-1436), trodusquemine] |  |  |  |  |  |  | 752 nM | 6.39e-07 M | 1.72e-06 M |  |
| CC(CCC[C@@H](C)[C@H]1CCC2C3C(CC[C@@]21C)[C@@]1(C)CC[C@H](NCCCNCCCCNCCCN)C[C@@H]1C[C@H]3O)C(=O)O (single isomer, unassigned) [ENT-03] | > 0.0001 M | > 0.0001 M | > 0.0001 M | 1.38e-06 M | 8.61e-07 M | 1.17e-07 M | 1420 nM | 1.38e-06 M | 8.61e-07 M | activity at PTPN2 (PTPN2/TC-PTP): inactive; IC50 (PTPN2/TC-PTP; Table 5C, read-out: Compound IC50 (M) PTPN2/TC-PTP): > 0.0001 M; activity at PP1B (PP1B): inactive; IC50 (PP1B; Table 5B, read-out: Compound IC50 (M) PP1B): > 0.0001 M; activity at PP1A (PP1A): inactive; IC50 (PP1A; Table 5B, read-out: Compound IC50 (M) PP1A): > 0.0001 M; IC50 (PTPN1/PTP1B-CD; Table 5C, read-out: Compound IC50 (M) PTPN1/PTP1B-CD): 1.17e-07 M |
| CC(CCC[C@@H](C)[C@H]1CCC2C3C(CC(O)[C@@]21C)[C@@]1(C)CC[C@H](NCCCNCCCCN)C[C@@H]1C[C@H]3O)C(=O)O (single isomer, unassigned) [ENT-05] |  |  |  |  |  |  | 976 nM |  |  | IC50 (PTPN2/TC-PTP; Table 18B, read-out: inhibitory activity PTPN2/TC-PTP): > 0.0001 M; IC50 (PP1B; Table 18A, read-out: inhibitory activity PP1B): > 0.0001 M; IC50 (PP1A; Table 18A, read-out: inhibitory activity PP1A): > 0.0001 M; IC50 (DUSP22/MKPX; Table 18A, read-out: inhibitory activity DUSP22/MKPX): > 0.0001 M; IC50 (PTPN12/PTP-PEST; Table 18B, read-out: inhibitory activity PTPN12/PTP-PEST): > 0.0001 M; IC50 (PTPN1/PTP1B-CD; Table 18B, read-out: inhibitory activity PTPN1/PTP1B-CD): 2.58e-06 M |

— patent US20250228873A1, “C25 R AND S ISOMERS OF AMINOSTEROLS AND METHODS OF MAKING AND USING THE SAME” (Enterin, Inc., priority 2022, published 2025)
